The numbers were not newly measured in patent EP4729597A1, “LOW-ALCOHOL BEER-LIKE BEVERAGE AND METHOD FOR PRODUCING LOW-ALCOHOL BEER-LIKE BEVERAGE” (Asahi Group Holdings, Ltd., priority 2023, dated 2024), which cites them from elsewhere.

[1] abbreviates: Table 1, octanol/water partition coefficient.

Structures are written as SMILES. Where two headings read alike, the source gives them in different places.

In the case of `CC(=O)/C=C/C1=C(C)CCCC1(C)C` [β-ionone], the LogP under setting [1] is 4.0.
For `CC(=O)OCCC(C)C` [Isoamyl acetate], the LogP is reported as 2.3. The LogP (Table 3) was 2.3.
With `CC(C)=CCC/C(C)=C/CO` [Geraniol], the LogP reads like this: under setting [1], 3.6; (Table 3) 3.6.
Turning to `CCCCCCCC(=O)OCC` [Ethyl octanoate], the LogP is on record as 3.8 under setting [1] and 3.8 (Table 3).
As for `CC(C)=CCCC(C)CCO` (centres unmarked) [Citronellol], the LogP is 3.9 under setting [1] and 3.9 (Table 3).
Turning to `C=CC(=C)CCC=C(C)C` [Myrcene], the LogP by setting is: under setting [1], 4.3; (Table 3) 4.3.

A word on the LogP: it is the decadic logarithm of the partition coefficient of the neutral form, usually between octanol and water.
